Source: patent publication US10085998B2, “Salts of potassium ATP channel openers and uses thereof” (Essentialis, Inc., priority 2006, dated 2018)
Converted amounts (≈) assume the structure as drawn. Like-named read-outs stand apart in the source and are kept apart here.

Assays:
[1] = Solubility measurements at pH 2, 7 and 12 in phosphate buffer; details: solids after solubility analysis (choline salt: pH 2 and 7 only)
Description: (§1) Solubility concentrations were determined using area-percent calculations with HPLC calibration curves.

[2] = Moisture sorption analysis; assay type: physicochemical; details: for Moisture sorption: hygroscopicity: relative humidity scan; for XRPD pattern following the moisture sorption/desorption analysis: after moisture sorption experiment; for Hysteresis upon desorption / hydrate formation: desorption scan
Description: Moisture Sorption Analysis was performed with a Hiden IGAsorp Moisture Sorption Instrument. Samples were first dried at 0% relative humidity at 25° C. until an equilibrium weight was reached, or for a maximum of 4 hours. Samples were then subjected to an isothermal (25° C.) scan from 10-90% relative humidity in steps of 10%. The samples were allowed to equilibrate to an asymptotic weight at each point for a maximum of 4 hours. Following absorption, a desorption scan from 85% relative humidity (at 25° C.) was run in steps of −10%, again allowing a maximum of 4 hours for the samples to equilibrate. The resulting samples after desorption were dried at 80° C. for two hours and analyzed by XRPD.

[3] = Form conversion and degradation under thermal stress
Description: Studies were also conducted to evaluate the likelihood for conversion and degradation under thermal stress.

[4] = Slurry studies (inter-conversion of the solid form)
Description: Slurry experiments were performed on each form to determine propensity for conversion and to see if a unique form could be generated.

[5] = pH 2
Description: as §1

[6] = all physiological relevant pH values from pH 2.0 to pH 8.5; deionized water, buffered aqueous solutions
Description: UV spectroscopy was performed with a Perkin-Elmer Lambda 25 spectrometer. Samples were dissolved in acetonitrile, water and a buffer system having a pH between 5.6 and 10. Spectra were acquired between 340 and 190 nm, using a 1 cm path length with background correction.

[7] = Additional solubility studies in 100 mM phosphate buffer (HPLC); assay type: physicochemical; details: pH 7.3, aqueous buffer, thermodynamic from solid, pH 7.30, pH after 18 h slurry 7.31, ambient temperature
Description: Each determination was carried out in duplicate, slurrying each sample in a 100 mM phosphate buffer solution, pH 7.00. […] After this time all samples were centrifuged, and the supernatant was diluted with mobile phase (MeCN/Water.).

[8] = 60° C., closed, protected from light, 7 and 14 days
[9] = 25° C., listed as Choline diazoxide salt

| Compound | XRPD pattern of the solids obtained after the solubility analysis [1] | Moisture sorption: hygroscopicity ([2]; 25° C.) | Water absorbed at 60% RH ([2]; 25° C.) | XRPD pattern following the moisture sorption/desorption analysis [2] | Form conversion and degradation under thermal stress (XRPD, DSC) [3, 8] | Slurry study: conversion of solid form ([4]; n-heptane, dichloromethane (CH2Cl2) and toluene, 7 and 14 days) | XRPD pattern of the solids obtained after the solubility analysis [5] | Fate of the salt in aqueous medium (UV/Vis absorbance) [6] | Hysteresis upon desorption / hydrate formation ([2]; 25° C.) | Hysteresis upon desorption / hydrate formation [2, 9] | Moisture sorption: hygroscopicity [2, 9] | Water absorbed at 80% RH ([2]; 25° C., 80% RH) | Degradation by HPLC after thermal stress [3] | Form conversion and degradation under thermal stress (XRPD, DSC) [3] | Slurry study: conversion of solid form ([4]; n-heptane, dichloromethane (CH2Cl2) and toluene, 7 and 14 days, listed as Choline diazoxide salt) | Hysteresis upon desorption / hydrate formation ([2]; 25° C., listed as Free form) | Water absorbed at 90% RH ([2]; 25° C., 90% RH) [wt %] | Slurry study: conversion of solid form ([4]; room temperature, no light, water, isopropyl alcohol, dichloromethane and toluene, 14 days) | solubility at 18 h [7] [µg/mL] |
| --- | --- | --- | --- | --- | --- | --- | --- | --- | --- | --- | --- | --- | --- | --- | --- | --- | --- | --- | --- |
| CC1=Nc2ccc(Cl)cc2S(=O)(=O)[N-]1.C[N+](C)(C)CCO [Form B] | Form B of the choline salt of diazoxide was still present | Hygroscopic - deliquesced | 7.4 wt % | remained in the Form B crystal structure | Stable after 14 days at | form conversion was not observed | – | – | – | – | – | – | – | – | – | – | – | – | – |
| CC1=Nc2ccc(Cl)cc2S(=O)(=O)[N-]1.C[N+](C)(C)CCO [choline salt of diazoxide] | – | hygroscopic | – | changed to an alternate crystalline form | – | – | changed back to the free form diazoxide material | hydrolyzes to the free base of diazoxide and choline hydroxide | does not form a stable hydrate | no hysteresis | deliquescent - | over 28 wt % | did not show any significant degradation | consistent with the starting material, as well as the presence of additional unique peaks | no propensity of inter-conversion | – | – | – | – |
| CC1=NS(=O)(=O)c2cc(Cl)ccc2N1 [free form diazoxide, 7-chloro-3-methyl-2H-1,2,4-benzothiadiazine 1, 1 dioxide, reference compound] | – | non-hygroscopic | approximately 0.04 wt % | same crystalline form | no conversion or degradation | – | – | – | does not form a stable hydrate | – | – | – | – | – | – | no hysteresis | ~0.20 | did not convert to alternate crystal forms | 70 (≈ 303 µM) |
